ChEMBL document CHEMBL2203115, “Design and synthesis of procollagen C-proteinase inhibitors” (Bioorg Med Chem Lett, 2012)
Peptide text beside a SMILES is read from it. * marks the point of attachment. NHOH = ON*

These compounds were tested against 72 kDa type IV collagenase (Homo sapiens, UniProt P08253) (assay: Inhibition of para-amino phenylmercuric acetate-activated MMP2 using Mca-P-L-G-L-Dap(Dnp)-A-R-NH2 as substrate after 1 hr by fluorescence assay).
72 kDa type IV collagenase, sequence (P08253 whole entry): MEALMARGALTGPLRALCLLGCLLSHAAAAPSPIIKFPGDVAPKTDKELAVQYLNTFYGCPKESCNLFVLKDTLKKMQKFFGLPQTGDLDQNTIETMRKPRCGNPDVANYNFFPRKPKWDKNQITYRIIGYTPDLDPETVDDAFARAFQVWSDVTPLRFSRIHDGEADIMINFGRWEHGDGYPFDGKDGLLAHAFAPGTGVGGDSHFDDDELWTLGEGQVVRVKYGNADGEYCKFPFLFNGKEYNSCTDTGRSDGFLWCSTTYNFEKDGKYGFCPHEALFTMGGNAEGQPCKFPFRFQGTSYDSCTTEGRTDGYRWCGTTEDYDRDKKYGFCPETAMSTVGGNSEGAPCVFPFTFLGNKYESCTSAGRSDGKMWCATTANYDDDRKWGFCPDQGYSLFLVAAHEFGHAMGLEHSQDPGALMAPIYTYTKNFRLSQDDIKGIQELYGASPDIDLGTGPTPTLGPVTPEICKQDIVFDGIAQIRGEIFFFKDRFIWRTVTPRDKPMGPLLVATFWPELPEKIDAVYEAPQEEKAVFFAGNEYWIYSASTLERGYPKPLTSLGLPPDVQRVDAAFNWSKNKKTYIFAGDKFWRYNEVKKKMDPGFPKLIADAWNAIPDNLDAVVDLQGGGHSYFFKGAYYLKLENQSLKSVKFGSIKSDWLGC

IC50 [µM] | Structure (SMILES)
> 6 | COc1ccc(CCN(CCC(=O)NO)S(=O)(=O)c2ccc(S(C)(=O)=O)cc2)cc1
> 25 | COc1ccc(CCN(CCC(=O)NO)S(=O)(=O)c2ccc(/C(N)=N/O)cc2)cc1
> 25 | COc1ccc(CCN(CCC(=O)NO)S(=O)(=O)c2ccc(NC(=O)NCc3ccccc3)cc2)cc1
0.14 | COc1ccc(S(=O)(=O)N(CC(=O)NO)Cc2ccc(Cl)cc2)cc1

Each compound was assayed against T1, Bone morphogenetic protein 1 (Homo sapiens, UniProt P13497) (assay: Inhibition of PCP after 1 hr by fluorescence assay).
T1 sequence (P13497 whole entry): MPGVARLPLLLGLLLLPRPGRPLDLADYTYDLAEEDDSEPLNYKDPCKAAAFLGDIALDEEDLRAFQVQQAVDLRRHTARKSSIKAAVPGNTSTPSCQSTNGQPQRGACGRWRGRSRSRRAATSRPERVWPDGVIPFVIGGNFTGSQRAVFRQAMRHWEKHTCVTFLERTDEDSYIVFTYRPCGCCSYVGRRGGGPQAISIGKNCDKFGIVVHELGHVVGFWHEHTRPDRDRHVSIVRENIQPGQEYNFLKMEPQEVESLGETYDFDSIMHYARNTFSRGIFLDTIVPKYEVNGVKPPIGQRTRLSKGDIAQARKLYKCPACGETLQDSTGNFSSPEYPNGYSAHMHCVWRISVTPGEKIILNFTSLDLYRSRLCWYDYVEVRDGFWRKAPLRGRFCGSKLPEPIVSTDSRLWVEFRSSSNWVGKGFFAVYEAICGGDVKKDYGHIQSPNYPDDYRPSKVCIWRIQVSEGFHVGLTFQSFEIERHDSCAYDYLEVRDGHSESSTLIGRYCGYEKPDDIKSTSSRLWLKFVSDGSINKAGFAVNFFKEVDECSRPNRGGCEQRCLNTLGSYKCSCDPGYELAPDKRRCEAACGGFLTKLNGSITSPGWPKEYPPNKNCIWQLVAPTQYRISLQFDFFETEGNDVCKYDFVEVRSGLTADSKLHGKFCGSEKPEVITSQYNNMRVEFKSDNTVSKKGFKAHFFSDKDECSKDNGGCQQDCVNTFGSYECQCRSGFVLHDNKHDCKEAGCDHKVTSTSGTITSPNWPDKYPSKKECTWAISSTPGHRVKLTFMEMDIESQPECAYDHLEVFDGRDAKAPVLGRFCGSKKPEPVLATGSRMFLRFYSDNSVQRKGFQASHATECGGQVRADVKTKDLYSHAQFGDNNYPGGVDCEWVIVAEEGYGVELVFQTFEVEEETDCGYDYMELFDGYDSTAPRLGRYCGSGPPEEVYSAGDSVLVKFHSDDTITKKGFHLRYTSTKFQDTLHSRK

Structure (SMILES) | IC50 [µM]
COc1ccc(CCN(CCN(O)C(N)=O)S(=O)(=O)c2ccc(S(C)(=O)=O)cc2)cc1 | > 100
COc1ccc(S(=O)(=O)N(CCc2ccccc2)CC(=O)NO)cc1 | 18
COc1ccc(S(=O)(=O)N(CCCC(=O)NO)c2ccccc2)cc1 | 28
COc1ccc(S(=O)(=O)N(CC(=O)NO)c2ccccc2)cc1 | 69
CNC(=O)[C@H](CCC(=O)O)NC(=O)C(CC(=O)O)CC(=O)NO (mixture of isomers) | 40
COc1ccc(S(=O)(=O)N(CCC(=O)NO)CCc2ccc([N+](=O)[O-])cc2)cc1 | 11
COc1ccc(CN(CC(=O)NO)S(=O)(=O)c2ccc(OC)cc2)cc1 | 29
CCC(C)N(CC(=O)NO)S(=O)(=O)c1ccc(OC)cc1 (stereo not given) | 112
COc1ccc(S(=O)(=O)N(CC(=O)NO)Cc2ccc(F)cc2)cc1 | 34
CNC(=O)[C@H](CCC(=O)O)NC(=O)[C@H](CC(=O)O)NCC(=O)O | 1500
COc1ccc(S(=O)(=O)N(CC(=O)NO)Cc2ccc(C(F)(F)F)cc2)cc1 | 67
COc1ccc(S(=O)(=O)N(CC(=O)NO)C(c2ccccc2)c2ccccc2)cc1 | 102
CCCCS(=O)(=O)N(CCc1ccc(OC)cc1)CC(=O)NO | 55
COc1ccc(S(=O)(=O)NCCC(=O)NO)cc1 | 166
COc1ccc(CCN(CC(=O)NO)S(=O)(=O)c2ccc(OC)cc2)cc1 | 18
COc1ccc(CCN(CCC(=O)CS)S(=O)(=O)c2ccc(S(C)(=O)=O)cc2)cc1 | 13
COc1ccc(CCN(CCCS)S(=O)(=O)c2ccc(S(C)(=O)=O)cc2)cc1 | 14
CCCCOC(=O)CN(CC(=O)NO)S(=O)(=O)c1ccc(OC)cc1 | 167
COc1ccc(S(=O)(=O)N(CC(=O)NO)Cc2ccccc2)cc1 | 16
CC(C)(C)c1ccc(S(=O)(=O)N(CCC(=O)NO)CCc2ccccc2)cc1 | 17
COc1ccc(S(=O)(=O)N(CCC(=O)NO)CCc2ccc(OC)c(OC)c2)cc1 | 42
COc1ccc(S(=O)(=O)N(CC(=O)O)CC(=O)NO)cc1 | 345
COc1ccc(S(=O)(=O)N(CC(=O)NO)Cc2ccc(Cl)cc2)cc1 | 19
COc1ccc(N(CC(=O)NO)S(=O)(=O)c2ccc(OC)cc2)cc1 | 73
CNC(=O)[C@H](CCC(=O)O)NC(=O)C(CS)CC(=O)O (stereo not given in full) | 85
COc1ccc(S(=O)(=O)N(CCCC(=O)NO)Cc2ccccc2)cc1 | 10
COc1ccc(S(=O)(=O)N(CCC(=O)NO)CCc2ccc(S(N)(=O)=O)cc2)cc1 | 23
CC(=O)N1CCC[C@H]1C(=O)N[C@@H](Cc1ccc(O)cc1)C(=O)N[C@@H](Cc1ccc(O)cc1)C(=O)NCC(=O)NO (Ac-PYYG-{NHOH}) | 42

Next, values leading:

IC50 [µM] | Structure (SMILES)
4.5 | COc1ccc(S(=O)(=O)N(CCC(=O)NO)Cc2ccccc2)cc1
2.3 | COc1ccc(S(=O)(=O)N(CCC(=O)NO)CCc2cccc(OC)c2)cc1
3 | COc1ccc(S(=O)(=O)N(CCC(=O)NO)c2ccccc2)cc1
9.1 | COc1ccc(CCN(CCC(=O)NO)S(=O)(=O)c2ccccc2S(C)(=O)=O)cc1
1.7 | COc1ccc(N(CCC(=O)NO)S(=O)(=O)c2ccc(OC)cc2)cc1
10 | COc1ccc(S(=O)(=O)N[C@@H](CC(=O)O)C(=O)NO)cc1
1 | COc1ccc(S(=O)(=O)N(CCC(=O)NO)CC2CCCCC2)cc1
9.4 | COc1ccc(CCN(CCS)S(=O)(=O)c2ccc(S(C)(=O)=O)cc2)cc1
1.7 | CCC(C)N(CCC(=O)NO)S(=O)(=O)c1ccc(OC)cc1 (stereo not given)
1 | O=C(CCN(CCc1ccccc1)S(=O)(=O)c1ccc(C(=O)O)cc1)NO
6.7 | CCCCS(=O)(=O)N(CCC(=O)NO)CCc1ccc(OC)cc1
8.1 | COc1ccc(S(=O)(=O)N(CCC(=O)NO)CCc2ccccn2)cc1
2.2 | O=C(CCN(CCc1ccccc1)S(=O)(=O)c1ccccc1)NO
2.8 | COc1ccc(S(=O)(=O)N(Cc2ccccc2)[C@@H](CC(=O)O)C(=O)NO)cc1
7.1 | COc1ccc(CCN(CCC(=O)NO)S(=O)(=O)c2ccccc2/C(N)=N\O)cc1
4.7 | COc1ccc(CCN(CC(=O)CS)S(=O)(=O)c2ccc(S(C)(=O)=O)cc2)cc1

What follows are compounds tested against Matrix metalloproteinase-9 (Homo sapiens, UniProt P14780) (assay: Inhibition of para-amino phenylmercuric acetate-activated MMP9 using Mca-P-L-G-L-Dap(Dnp)-A-R-NH2 as substrate after 1 hr by fluorescence assay).
Matrix metalloproteinase-9, sequence (P14780 whole entry): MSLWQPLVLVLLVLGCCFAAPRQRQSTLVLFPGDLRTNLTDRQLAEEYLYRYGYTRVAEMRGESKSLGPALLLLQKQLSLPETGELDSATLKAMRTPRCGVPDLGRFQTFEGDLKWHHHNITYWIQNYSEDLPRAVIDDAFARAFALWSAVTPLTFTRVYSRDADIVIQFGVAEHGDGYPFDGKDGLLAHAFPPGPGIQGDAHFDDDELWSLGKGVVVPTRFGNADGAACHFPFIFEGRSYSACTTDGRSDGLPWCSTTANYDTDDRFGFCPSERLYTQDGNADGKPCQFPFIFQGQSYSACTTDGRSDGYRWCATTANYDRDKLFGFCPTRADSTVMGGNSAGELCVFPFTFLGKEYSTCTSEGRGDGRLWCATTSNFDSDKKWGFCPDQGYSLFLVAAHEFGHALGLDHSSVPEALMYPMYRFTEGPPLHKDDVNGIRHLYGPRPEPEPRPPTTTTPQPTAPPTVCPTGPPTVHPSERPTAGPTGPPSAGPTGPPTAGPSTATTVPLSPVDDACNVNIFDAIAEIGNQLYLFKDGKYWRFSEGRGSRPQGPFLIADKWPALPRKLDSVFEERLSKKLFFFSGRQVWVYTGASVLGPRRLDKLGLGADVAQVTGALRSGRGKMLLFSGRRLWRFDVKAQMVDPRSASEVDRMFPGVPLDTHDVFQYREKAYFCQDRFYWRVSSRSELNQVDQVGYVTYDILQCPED

IC50 [µM] | Structure (SMILES)
> 6 | COc1ccc(CCN(CCC(=O)NO)S(=O)(=O)c2ccc(S(C)(=O)=O)cc2)cc1
> 25 | COc1ccc(CCN(CCC(=O)NO)S(=O)(=O)c2ccc(/C(N)=N/O)cc2)cc1
> 25 | COc1ccc(CCN(CCC(=O)NO)S(=O)(=O)c2ccc(NC(=O)NCc3ccccc3)cc2)cc1
0.05 | COc1ccc(S(=O)(=O)N(CC(=O)NO)Cc2ccc(Cl)cc2)cc1

These compounds were tested on 3T3-L1 (assay: Cytotoxicity against mouse 3T3L1 cells).
Format: cell-based

Structure (SMILES) | IC50 [µM]
COc1ccc(CCN(CCC(=O)NO)S(=O)(=O)c2ccc(/C(N)=N/O)cc2)cc1 | 150

What follows are compounds tested against T2, Interstitial collagenase (Homo sapiens, UniProt P03956) (assay: Inhibition of para-amino phenylmercuric acetate-activated MMP1 using Mca-P-L-G-L-Dap(Dnp)-A-R-NH2 as substrate after 1 hr by fluorescence assay).
T2 sequence (P03956 whole entry): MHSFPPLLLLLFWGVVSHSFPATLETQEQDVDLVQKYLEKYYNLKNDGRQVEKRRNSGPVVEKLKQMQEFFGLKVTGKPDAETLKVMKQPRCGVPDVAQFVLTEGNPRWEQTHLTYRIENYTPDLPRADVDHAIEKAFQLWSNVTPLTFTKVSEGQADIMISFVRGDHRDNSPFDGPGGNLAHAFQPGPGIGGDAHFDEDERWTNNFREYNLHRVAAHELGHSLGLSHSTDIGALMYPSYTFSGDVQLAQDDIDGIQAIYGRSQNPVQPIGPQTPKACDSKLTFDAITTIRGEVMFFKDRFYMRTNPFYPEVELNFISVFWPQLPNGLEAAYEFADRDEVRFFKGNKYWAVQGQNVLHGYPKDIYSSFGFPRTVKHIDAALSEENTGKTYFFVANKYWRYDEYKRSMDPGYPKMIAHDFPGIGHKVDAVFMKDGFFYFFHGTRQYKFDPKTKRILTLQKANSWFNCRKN

IC50 [µM] | Structure (SMILES)
> 25 | COc1ccc(CCN(CCC(=O)NO)S(=O)(=O)c2ccc(/C(N)=N/O)cc2)cc1
> 25 | COc1ccc(CCN(CCC(=O)NO)S(=O)(=O)c2ccc(NC(=O)NCc3ccccc3)cc2)cc1
